# Laboratory results as given in patent US11634391B2, “Compounds which are inhibitors of Notum” (UCL BUSINESS LTD, priority 2018, dated 2023).
# Where a name gives a salt, the structure may show the parent alone.
# Molecular target: notum carboxyesterase enzyme (Homo sapiens (Human), UniProt Q6P988)
# Experiment: Biochemical Notum Enzymatic Activity Assay (OPTS substrate, fluorescence)
# Details: 2 μM OPTS solution, 2.38 nM notum enzyme solution, 1 hour incubation at room temperature, fluorescence ex 485 nm / em 520 nm; n≥2
# From the text: Plate layout and measured fluorescence values were input into Dotmatics Studies data management tool.
# notum carboxyesterase enzyme, sequence (Q6P988 20-496): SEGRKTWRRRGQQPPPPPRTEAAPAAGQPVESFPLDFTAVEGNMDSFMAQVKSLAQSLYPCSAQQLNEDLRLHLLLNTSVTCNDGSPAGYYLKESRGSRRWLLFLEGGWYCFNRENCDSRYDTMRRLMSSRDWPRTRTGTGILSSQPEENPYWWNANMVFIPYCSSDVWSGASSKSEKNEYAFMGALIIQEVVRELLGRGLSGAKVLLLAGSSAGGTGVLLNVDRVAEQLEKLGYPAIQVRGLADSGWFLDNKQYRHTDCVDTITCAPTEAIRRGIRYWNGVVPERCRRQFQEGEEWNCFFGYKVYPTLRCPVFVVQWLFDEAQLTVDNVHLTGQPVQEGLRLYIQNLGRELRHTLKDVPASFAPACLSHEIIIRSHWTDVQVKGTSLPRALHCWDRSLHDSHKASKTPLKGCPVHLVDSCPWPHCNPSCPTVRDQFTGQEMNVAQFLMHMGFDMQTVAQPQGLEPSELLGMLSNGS
row,SMILES,IC50
1,"FC(F)(F)c1c(Cl)cnc(-n2ccnn2)c1Cl [Compound 307, 3,5-dichloro-2-(triazol-1-yl)-4-(trifluoromethyl)pyridine]",0.0081 µM
2,"Cc1cc(C)cc(-n2cnnn2)c1 [Compound 194, 1-(3,5-dimethylphenyl)tetrazole]",3.22 µM
3,"OCc1cn(-c2ccc3nccnc3c2)nn1 [Compound 12, (1-(quinoxalin-6-yl)-1H-1,2,3-triazol-4-yl)methanol]",52.5 µM
4,"NCc1cn(-c2ccc(Cl)c(Cl)c2)nn1 [Compound 31, (1-(3,4-dichlorophenyl)-1H-1,2,3-triazol-4-yl)methanamine]",8.82 µM
5,"Oc1nnc(-c2cccc(C(F)(F)F)n2)o1 [Compound 206, 5-[6-(trifluoromethyl)-2-pyridyl]-1,3,4-oxadiazol-2-ol]",> 23.1 µM
6,"NCc1cn(-c2cc(Cl)cc(Cl)c2)nn1 [Compound 36, (1-(3,5-dichlorophenyl)-1H-1,2,3-triazol-4-yl)methanamine hydrochloride]",44.6 µM
7,"FC(F)(F)c1ccc(-c2nnc(S)o2)cc1C1CC1 [Compound 187, 5-[3-cyclopropyl-4-(trifluoromethyl)phenyl]-1,3,4-oxadiazole-2-thiol]",0.426 µM
8,"CCOc1nnc(-c2ccc(Cl)c(C(F)(F)F)c2Cl)o1 [Compound 242, 2-(2,4-dichloro-3-(trifluoromethyl)phenyl)-5-ethoxy-1,3,4-oxadiazole]",0.0043 µM
9,"Cc1ccc(-n2cc(CO)nn2)cc1C [Compound 5, (1-(3,4-dimethylphenyl)-1H-1,2,3-triazol-4-yl)methanol]",0.81 µM
10,"Cc1cn(-c2ccc(Cl)c(C(F)(F)F)c2Cl)nn1 [Compound 301, 1-(2,4-dichloro-3-(trifluoromethyl)phenyl)-4-methyl-1H-1,2,3-triazole]",0.108 µM
11,"OCc1cn(-c2ccc3c(c2)OCO3)nn1 [Compound 4, (1-(benzo[d][1,3]dioxol-5-yl)-1H-1,2,3-triazol-4-yl)methanol]",37.3 µM
12,"OCc1cn(-c2ccc(Cl)c(Cl)c2)cn1 [Compound 127, [1-(3,4-dichlorophenyl)imidazol-4-yl]methanol]",5.95 µM
13,"OCc1cn(-c2ccccc2Cl)nn1 [Compound 20, (1-(2-chlorophenyl)-1H-1,2,3-triazol-4-yl)methanol]",39.1 µM
14,"Oc1nnc(-c2cc(C3CC3)cc(C(F)(F)F)c2)o1 [Compound 211, 5-[3-cyclopropyl-5-(trifluoromethyl)phenyl]-1,3,4-oxadiazol-2-ol]",0.433 µM
15,"Nc1nnc(-c2ccccc2)o1 [Compound 137, 5-phenyl-1,3,4-oxadiazol-2-amine]",33 µM
16,"FC(F)(F)c1c(Cl)ccc(-n2cnnc2)c1Cl [Compound 300, 4-(2,4-dichloro-3-(trifluoromethyl)phenyl)-4H-1,2,4-triazole]",1.31 µM
17,"CN(C)Cc1cn(-c2ccc(Cl)c(Cl)c2)nn1 [Compound 44, 1-(1-(3,4-dichlorophenyl)-1H-1,2,3-triazol-4-yl)-N,N-dimethylmethanamine hydrochloride]",74.5 µM
18,"FC(F)(F)c1c(Cl)ccc(-c2c[nH]nn2)c1Cl [Compound 306, 4-[2,4-dichloro-3-(trifluoromethyl)phenyl]-1H-triazole]",0.0029 µM
19,"FC(F)(F)c1cc(-n2ccnn2)ccc1Cl [Compound 175, 1-[4-chloro-3-(trifluoromethyl)phenyl]triazole]",0.0993 µM
20,"OCc1cn(-c2ccc(Cl)c(OCc3ccccc3)c2)nn1 [Compound 17, (1-(3-(benzyloxy)-4-chlorophenyl)-1H-1,2,3-triazol-4-yl)methanol]",5.69 µM

row,SMILES,IC50
1,"FC(F)(F)c1ccc(-c2nnco2)cc1C1COC1 [Compound 181, 2-[3-(oxetan-3-yl)-4-(trifluoromethyl)phenyl]-1,3,4-oxadiazole]",0.257 µM
2,"Clc1ccc(-n2cnnn2)cc1Cl [Compound 214, 1-(3,4-dichlorophenyl)tetrazole]",1.56 µM
3,"O=C(O)c1cn(-c2ccc(Cl)c(C(F)(F)F)c2Cl)nn1 [Compound 304, 1-[2,4-dichloro-3-(trifluoromethyl)phenyl]triazole-4-carboxylic acid]",0.0303 µM
4,"FC(F)(F)c1cc(-n2ccnn2)ccc1N1CCCC1 [Compound 286, 1-(4-(pyrrolidin-1-yl)-3-(trifluoromethyl)phenyl)-1H-1,2,3-triazole]",0.862 µM
5,"FC(F)(F)c1cc(-c2c[nH]nn2)ccc1Cl [Compound 50, 4-(4-chloro-3-(trifluoromethyl)phenyl)-1H-1,2,3-triazole]",0.0194 µM
6,"OCc1cn(-c2ccccc2F)nn1 [Compound 273, (1-(2-Fluorophenyl)-1H-1,2,3-triazol-4-yl)methanol]",63.6 µM
7,"COc1ccc(-c2cc[nH]n2)c(O)c1 [Compound 57, 5-methoxy-2-(1H-pyrazol-3-yl)phenol]",34.2 µM
8,"COc1cc(-n2cc(CO)nn2)ccc1Cl [Compound 30, (1-(4-chloro-3-methoxyphenyl)-1H-1,2,3-triazol-4-yl)methanol]",6.61 µM
9,"OCc1cc(-c2ccc(Cl)cc2)[nH]n1 [Compound 171, [5-(4-chlorophenyl)-1H-pyrazol-3-yl]methanol]",> 10 µM
10,"c1ccc(-n2cnnn2)cc1 [Compound 134, 1-phenyl-1H-tetrazole]",19.4 µM
11,"Clc1ccc(-c2cnco2)cc1 [Compound 151, 5-(4-chlorophenyl)oxazole]",5.74 µM
12,"OCc1cn(-c2ccc(Cl)c(OC(F)(F)F)c2)nn1 [Compound 270, (1-(4-chloro-3-(trifluoromethoxy)phenyl)-1H-1,2,3-triazol-4-yl)methanol]",0.697 µM
13,"NCc1cn(-c2cccc(C(F)(F)F)c2)nn1 [Compound 38, (1-(3-(trifluoromethyl)phenyl)-1H-1,2,3-triazol-4-yl)methanamine hydrochloride]",37.5 µM
14,"Clc1ccc(-n2cnnn2)cc1 [Compound 216, 1-(4-chlorophenyl)tetrazole]",26.9 µM
15,"O=c1cc(-c2ccccc2)cc[nH]1 [Compound 236, 4-phenylpyridin-2(1H)-one]",14.1 µM
16,"OCc1cn(-c2cc(Cl)ccc2Cl)nn1 [Compound 26, (1-(2,5-dichlorophenyl)-1H-1,2,3-triazol-4-yl)methanol]",25.5 µM
17,"FC(F)(F)c1cccc(-c2nnco2)n1 [Compound 221, 2-[6-(trifluoromethyl)-2-pyridyl]-1,3,4-oxadiazole]",82.5 µM
18,"FC(F)(F)c1cc(-c2nnco2)cc(C2COC2)c1 [Compound 188, 2-[3-(oxetan-3-yl)-5-(trifluoromethyl)phenyl]-1,3,4-oxadiazole]",24.7 µM
19,"Cc1ccc(-c2csnn2)cc1 [Compound 145, 4-(p-tolyl)-1,2,3-thiadiazole]",3.47 µM
20,"Cn1nc(-c2ccc(Cl)cc2)oc1=O [Compound 229, 5-(4-chlorophenyl)-3-methyl-1,3,4-oxadiazol-2(3H)-one]",26.1 µM

row,SMILES,IC50
1,"[2H]C([2H])([2H])Oc1nnc(-c2ccc(Cl)c(C(F)(F)F)c2Cl)o1 [Compound 241, 2-(2,4-dichloro-3-(trifluoromethyl)phenyl)-5-(methoxy-d3)-1,3,4-oxadiazole]",0.0036 µM
2,"OCc1cn(-c2cccc(Cl)c2)nn1 [Compound 21, (1-(3-chlorophenyl)-1H-1,2,3-triazol-4-yl)methanol]",9.49 µM
3,"O=C(O)c1cn(-c2ccc(Cl)c(C(F)(F)F)c2)nn1 [Compound 58, 1-(4-chloro-3-(trifluoromethyl)phenyl)-1H-1,2,3-triazole-4-carboxylic acid]",0.97 µM
4,"COc1nnc(-c2cccc(Cl)c2)o1 [Compound 176, 2-(3-chlorophenyl)-5-methoxy-1,3,4-oxadiazole]",5.36 µM
5,"CC(O)c1cn(-c2ccc(Cl)c(Cl)c2)nn1 (stereo not shown) [Compound 40, 1-(1-(3,4-dichlorophenyl)-1H-1,2,3-triazol-4-yl)ethan-1-ol]",> 10 µM
6,"OCc1cn(-c2ccc(Cl)c(C(F)(F)F)c2Cl)nn1 [Compound 277, [1-[2,4-dichloro-3-(trifluoromethyl)phenyl]triazol-4-yl]methanol]",0.0096 µM
7,"FC(F)(F)c1cc(-c2nnco2)ccn1 [Compound 222, 2-[2-(trifluoromethyl)-4-pyridyl]-1,3,4-oxadiazole]",8.05 µM
8,"NCc1cn(-c2ccccc2)nn1 [Compound 39, (1-phenyl-1H-1,2,3-triazol-4-yl)methanamine]",4.87 µM
9,"CC(C)c1ccc(-n2cnnn2)cc1 [Compound 217, 1-(4-isopropylphenyl)tetrazole]",21.4 µM
10,"Cc1nnc(-c2ccc(C3CC3)c(C(F)(F)F)c2)o1 [Compound 190, 2-[4-cyclopropyl-3-(trifluoromethyl)phenyl]-5-methyl-1,3,4-oxadiazole]",0.0887 µM
11,"Nc1nnc(-c2ccc(Cl)cc2)o1 [Compound 156, 2-amino-5-(4-chlorophenyl)-1,3,4-oxadiazole]",11.9 µM
12,"OCc1cn(-c2ccc(Cl)cc2Cl)nn1 [Compound 8, (1-(2,4-dichlorophenyl)-1H-1,2,3-triazol-4-yl)methanol]",7.2 µM
13,"FC(F)(F)c1cc(-n2ccnn2)cc(Cl)c1Cl [Compound 309, 1-[3,4-dichloro-5-(trifluoromethyl)phenyl]triazole]",0.107 µM
14,"CC(=O)NCc1cn(-c2ccc(Cl)c(Cl)c2)nn1 [Compound 42, N-((1-(3,4-dichlorophenyl)-1H-1,2,3-triazol-4-yl)methyl)acetamide]",19.5 µM
15,"CC(O)Cc1cn(-c2ccc(Cl)c(C(F)(F)F)c2Cl)nn1 (stereo not shown) [Compound 305, 1-[1-[2,4-dichloro-3-(trifluoromethyl)phenyl]triazol-4-yl]propan-2-ol]",1.32 µM
16,"OCc1cn(-c2ccc(Cl)c(OCC3CC3)c2)nn1 [Compound 18, (1-(4-chloro-3-(cyclopropylmethoxy)phenyl)-1H-1,2,3-triazol-4-yl)methanol]",> 10 µM
17,"CCOc1cccc(-c2nnc(N)s2)c1 [Compound 48, 5-(3-ethoxyphenyl)-1,3,4-thiadiazol-2-amine]",85.9 µM
18,"Nc1nnc(-c2ccc(Cl)c(C(F)(F)F)c2Cl)o1 [Compound 248, 5-[2,4-dichloro-3-(trifluoromethyl)phenyl]-1,3,4-oxadiazol-2-amine]",0.0119 µM
